Test results reported in patent US5767253A, “A83543 Compounds; factors Q, R, S, and T” (priority 1995, dated 1998).
Values after ≈ are worked out from the molar mass of the structure shown.

Tests used:
[1] = test system: Cotton Aphid; test: Mite/insect screen, Cotton Aphid (CA); format: in vivo, Aphis gossypii Glover; details: Aphis gossypii, 4-5 day, mean of single replicate tests
Protocol: (§1) The Formula 2 compounds were tested for miticidal and insecticidal activity in the following mite/insect screen. Each test compound was formulated by dissolving the compound in an acetone-alcohol (1:1) mixture containing 23 g of TOXIMUL R (sulfonate/nonionic emulsifier blend) and 13 g of TOXIMUL S (sulfonate/nonionic emulsifier blend) per liter. These mixtures were then diluted with water to give the indicated concentrations.
(§2) Two-spotted spider mites and cotton aphids were introduced on squash cotyledons and allowed to establish on both leaf surfaces. The leaves were then sprayed with 5 ml of test solutions using a DeVilbiss atomizing sprayer at 10 psi. Both surfaces of the leaves were covered until run off and then allowed to dry for one hour. After standard exposure periods percent mortality was evaluated. Additional insects were evaluated using similar formulations and evaluation procedures. The results are reported in Table V. The following abbreviations are used: […]

[2] = test system: Two-spotted Spider Mite; test: Mite/insect screen, Two-spotted Spider Mite (TSSM); format: in vivo; details: Tetranychus urticae, 4-5 day, mean of single replicate tests
Protocol: as §1, §2

[3] = test system: Rootknqt Nemat.ode; test: Mite/insect screen, Rootknot Nematode (NEM); format: in vivo, Meliiodyne spp.; details: 264 h, 11 day, mean of single replicate tests
Protocol: as §1, §2

[4] = test system: Adult Stablefly; test: Activity against adult stablefly (in vitro); format: in vivo; details: Stomoxys calcitrans
Excerpt: (§3) Tables VII and VIII summarize in vitro studies using compounds of the present invention against members of the insect order Diptera.

[5] = test system: German Cockroach; test: Mite/insect screen, German Cockroach (GECR); format: in vivo; details: Blattella germanica, mean of single replicate tests
Protocol: as §1, §2

[6] = test system: Southern Corn Rootworm; test: Mite/insect screen, Southern Corn Rootworm (SCRW); format: in vivo, Diabrotica undecimpunctata howardi; details: 264 h, 11 day, mean of single replicate tests
Protocol: as §1, §2

[7] = test system: Beet Armyworm; test: Mite/insect screen, Beet Armyworm (BAW); format: in vivo, Spodoptera exiqua; details: Spodoptera exigua, 144 h, 6 day, mean of single replicate tests
Protocol: as §1, §2

[8] = test system: Aster Leafhopper; test: Mite/insect screen, Aster Leafhopper (ALH); format: in vivo; details: Macrosteles fascifrons, 24 hr, mean of single replicate tests
Protocol: as §1, §2

[9] = test system: Tobacco Budworm; test: Mite/insect screen, Tobacco Budworm (TBW); format: in vivo; details: Heliothis virescens, 144 h, 6 day, mean of single replicate tests
Protocol: as §1, §2

[10] = test system: neonate tobacco budworm; test: LD50 against neonate tobacco budworm; format: in vivo; details: Heliothis virescens; neonate larvae; mean of two tests; mortality evaluated at 24 and 48 hours
Protocol: The Formula 2 compounds were evaluated in the following assay to determine the LD50 against neonate tobacco budworm (Heliothis virescens). A petri dish (100 mm ×20 mm) is inverted and the lid lined with a #1 qualitative filter paper. Ten neonate larvae are placed in each dish and a 1 ml test solution is pipetted onto the insects. The petri dish bottom is then placed on the lid to contain the larvae. At 1 hr. after treatment, a small piece of Heliothis diet (modified slurry, Southland Products, Lake Village, Ariz.) is added to each dish. The mortality is evaluated at 24 and 48 hours. The tests were run in triplicate.

[11] = test system: Blowfly Larvae; test: Activity against blowfly larvae (in vitro); format: in vivo
Excerpt: as §3

Structure (SMILES)	inhibition at 50 ppm [1] [%]	inhibition at 400 ppm [1] [%]	inhibition at 50 ppm [2] [%]	inhibition at 400 ppm [2] [%]	inhibition at 400 ppm [3] [%]	inhibition at 50 ppm ([5]; 168 h, 7 day) [%]	inhibition at 400 ppm ([5]; 168 h, 7 day) [%]	inhibition at 50 ppm ([5]; 504 h, 21 day) [%]	inhibition at 400 ppm ([5]; 504 h, 21 day) [%]	inhibition at 400 ppm [6] [%]	inhibition at 50 ppm [7] [%]	inhibition at 400 ppm [7] [%]	inhibition at 50 ppm [8] [%]	inhibition at 400 ppm [8] [%]	inhibition at 21 ppm [9] [%]	inhibition at 64 ppm [9] [%]	LC50 [10] [µg/mL]	% mortality ([11]; 5 ppm, 24 hrs.) [%]	% mortality ([11]; 5 ppm, 48 hrs.) [%]	% mortality ([11]; 10 ppm, 24 hrs.) [%]	further results
CC[C@H]1CCC[C@H](O[C@H]2CC[C@H](N(C)C)[C@@H](C)O2)[C@@H](C)C(=O)C2=C[C@@H]3[C@@H](C=C(C)[C@@H]4C[C@@H](O[C@@H]5O[C@@H](C)[C@H](OC)[C@@H](OC)[C@H]5O)C[C@@H]34)[C@@H]2CC(=O)O1 [A83543Q]	0	0	70	100	0	0	0	0	0	0	100	100	100	100	100	100	0.39 (≈ 0.533 µM)	90	90	100	mortality at 5 ppm ([4]; 24 h): 50%; mortality at 10 ppm ([4]; 24 h): 90%; mortality at 5 ppm ([4]; 48 h): 90%; mortality at 10 ppm ([4]; 48 h): 100%; % mortality ([11]; 10 ppm, 48 hrs.): 100%
CC[C@H]1CCC[C@H](O[C@H]2CC[C@H](NC)[C@@H](C)O2)[C@@H](C)C(=O)C2=C[C@@H]3[C@@H](C=C[C@@H]4C[C@@H](O[C@@H]5O[C@@H](C)[C@H](OC)[C@@H](OC)[C@H]5O)C[C@@H]34)[C@@H]2CC(=O)O1 [A83543R]	0	0	85	90	0	0	0	20	0	0	0	0	0	0	63	88	14.5 (≈ 20.6 µM)	90	100	100	mortality at 5 ppm ([4]; 24 h): 70%; mortality at 10 ppm ([4]; 24 h): 90%; mortality at 5 ppm ([4]; 48 h): 100%; mortality at 10 ppm ([4]; 48 h): 100%; % mortality ([11]; 10 ppm, 48 hrs.): 100%
CO[C@@H]1[C@@H](OC)[C@@H](O)[C@H](O[C@H]2C[C@H]3[C@@H]4C=C5C(=O)[C@H](C)[C@@H](O[C@H]6CC[C@H](N(C)C)[C@@H](C)O6)CCC[C@H](C)OC(=O)C[C@H]5[C@@H]4C=C[C@@H]3C2)O[C@H]1C [A83543S]	0	0	0	0	0	0	0	0	20	0	100	100	60	100	26	53	53 (≈ 75.3 µM)	0	0	60	mortality at 50 ppm ([4]; 24 h): 100%; mortality at 100 ppm ([4]; 24 h): 90%; mortality at 50 ppm ([4]; 48 h): 100%; mortality at 100 ppm ([4]; 48 h): 100%; % mortality ([11]; 10 ppm, 48 hrs.): 60%
CC[C@H]1CCC[C@H](O[C@H]2CC[C@H](N(C)C)[C@@H](C)O2)[C@@H](C)C(=O)C2=C[C@@H]3[C@@H](C=C[C@@H]4C[C@@H](O[C@@H]5O[C@@H](C)[C@H](OC)[C@@H](O)[C@H]5O)C[C@@H]34)[C@@H]2CC(=O)O1 [A83543T]	0	0	0	0	0	0	0	0	0	0	0	0	20	100	0	0	> 64				mortality at 50 ppm ([4]; 24 h): 60%; mortality at 100 ppm ([4]; 24 h): 80%; mortality at 50 ppm ([4]; 48 h): 70%; mortality at 100 ppm ([4]; 48 h): 90%; % mortality ([11]; 50 ppm, 24 hrs.): 0%; % mortality ([11]; 50 ppm, 48 hrs.): 0%; % mortality ([11]; 100 ppm, 24 hrs.): 0%; % mortality ([11]; 100 ppm, 48 hrs.): 0%
